The text below walks through data of patent publication US9839632B2, “Methods and compositions using 4-amino-2-(2,6-dioxo-piperidine-3-yl)-isoindoline-1,3-dione for treatment and management of central nervous system cancers” (CELGENE CORPORATION, priority 2013, dated 2017).

Each structure is given as a SMILES string.

In assay [1] the test system is OCI-LY10 B lymphoma cells. The assay is described as follows: Orthotopic murine CNS lymphoma model, OCI-LY10 (bioluminescence tumor growth, survival). The class given is in vivo, athymic mice. Particulars: for median survival: OCI-LY10 model; for in vivo tumor growth (luminescence signal) vs control: P<0.05, n=8. As to the method: Animal and housing: Female athymic mice (8-10 weeks old and weighing 20-25 g at the beginning of the study) were purchased from Harlan laboratories. They were housed in a temperature-controlled sterilized room (23±2° C.) with a 12-h light/dark cycle and free access to food and water throughout the study. Animal use was approved by Mayo Foundation Institutional Animal Use and Care Committee and was in accordance with NIH Guide for the Care and Use of Laboratory Animals.
Orthotopic murine CNS lymphoma models: Two murine CNS lymphoma models were created by intracerebral injection of 2.5×10^4 luciferase-transfected Raji or 1×10^5 luciferase-transfected OCI-LY10 B lymphoma cells in athymic mice under anesthesia using a stereotactic platform. Eight-week-old athymic mice underwent minimum 7-day acclimation/quarantine prior to surgery. Surgery was performed in a laminar flow hood under sterile conditions. Tylenol 300 mg/kg PO was given for analgesia 24 hours before the surgery continuing 48 hours postoperatively. Anesthesia was achieved by inhalation of 1-2% isoflurane. After the mouse became well anesthetized, it was placed in the Kopf stereotactic instrument. A small amount of BNP antibiotic cream (a mixture of Bacitracin, Neomycin and Polymyxin) was smeared on its eyes to prevent infection and corneal damage during surgery. A strip of soft fabric was placed over the mouse's body and tail to prevent excessive heat loss during surgery. The scalp area was cleaned with a 2% solution of Betadine and dried with cotton tipped applicator. A midline sagittal incision was made in the scalp. A small burr hole was drilled in the left skull with a surgical drill (Kopf) or a Dremel drill according to the coordinates (AP: 0.5 mm, LM: 2.5 mm) as determined by reference to the mouse brain atlas by Franklin and Paxinos. Paxinos, 2001. The dura mater was surgically exposed, and a 10 μl-Hamilton syringe with a 26S-gauge beveled needle was lowered into the left cerebral hemisphere up to the depth of 3 mm and 5 μl of tumor cells was slowly infused (0.5 μl/min). The needle was left in place for 5 minutes to prevent reflux and then was slowly removed. The skin was closed with wound clips. The mice recovered from anesthesia and surgery in a warm environment and were not returned to their cages until motor activity returned. Cages were placed on top of a heating pad to minimize the loss of body heat during the recovery. The mice were monitored postoperatively at least twice a day for 5 days or until recovery was complete.
Bioluminescence imaging of mouse: After intracerebral injection of lymphoma cells, all the mice were subjected to bioluminesence imaging (“BLI”) twice a week starting at day-4 post-intracerebral injection to monitor the real-time in vivo tumor growth. BLI was conducted using a Xenogen Lumina optical imaging system (Caliper Life Sciences, Hopkinton, Mass.). Mice were anesthetized with isofluorane before intraperitoneal injections of luciferin at a dose of 150 mg/kg, providing a saturating substrate concentration for luciferase enzyme. Peak luminescent signals were recorded 10 minutes after luciferin injection. Regions of interest encompassing the intracranial area of signal were defined using Living Image software (Xenogen), and the total photons/s/steradian/cm^2 was recorded.
In vivo preclinical evaluation of 4-amino-2-(2,6-dioxo-piperidine-3-yl)-isoindoline-1,3-dione in murine CNS lymphoma models: Mice were imaged 4 days after intracerebral injection and were distributed among different treatment groups with equivalent average BLI signal. Real time tumor growth was monitored by BLI. Tumor growth and survival data were analyzed for statistical difference between the groups. Mice were assigned to four experimental groups and one vehicle control group in Raji model. Mice in experimental groups received 4-amino-2-(2,6-dioxo-piperidine-3-yl)-isoindoline-1,3-dione 0.3 mg/kg, 3 mg/kg, 10 mg/kg, or 30 mg/kg by oral gavage daily for 28 days. […]

Assay [2] concerns macrophages and NK cells in the CNS lymphoma microenvironment. The assay is described as follows: Immunohistochemistry/immunofluorescence of CNS lymphoma microenvironment, Raji model. The class given is in vivo, athymic mice. Conditions: P<0.05 vs control. The source says:
Immunohistochemistry (“IHC”) assessment for macrophages: Paraffin sections (10 μm thick) were fixed, blocked, and immunostained with the appropriate antibody: Iba-1 (BD Biosciences) for macrophages, Ym1 (Stemcell Technologies) as a marker for M2 polarization, iNOS (Calbiochem) as a marker for M1 polarization. Aperio ScanScope XT slide scanner and image analysis system (Aperio Spectrum, Vista, Calif.) were used for quantitative assessment of macrophages. Three equal-size (0.4 mM2) fields in macrophage-dense areas were selected in the contralateral brain and the tumor for counting. Data were shown as an average of the three fields.
Immunofluorescence for natural killer cells: Frozen sections (10 μm thick) were permeabilized with PBS-0.2% Triton X-100 for 5 min. After blocking with PBS-5% goat serum-0.02% Triton X-100 for 45 mins at 37° C., the sections were incubated overnight at 4° C. with Rat monoclonal CD335 antibody (a marker for NK cells, 1:200, Biolegend). After washing, sections were incubated with the Alexa Fluor 594 Goat anti-Rat IgG secondary antibody (1:1000, Life Technologies) at 37° C. for 1.5 h. Finally, Vectashield H-1200 mounting medium with DAPI (Vector Laboratories) was used to stain the nuclei. Images were obtained on a Zeiss LSM 510 META confocal microscope. Six equal-size (0.2 mM^2) fields in NK-dense areas were selected in the tumor for taking pictures. Fluorescence intensity data were generated by Zeiss LSM 510 and shown as an average of six fields.
Statistical analysis: One-way ANOVA was used to compare the difference between the groups at each time point. Two-way repeated measures ANOVA was used to analyze the interaction between the time and treatment. Survival analysis was performed by Kaplan Meier method. Kaplan Meier survival curves were generated using Prism4 software and the statistical difference between curves was derived with a log-rank test. P<0.05 was considered significant.

Where [3] appears, read: listed as 4-amino-2-(2,6-dioxo-piperidine-3-yl)-isoindoline-1,3-dione.

On to `Nc1cccc2c1C(=O)N(C1CCC(=O)NC1=O)C2=O` (stereo not shown) [Pomalidomide, 4-amino-2-(2,6-dioxo-piperidine-3-yl)-isoindoline-1,3-dione], for which the median survival in assay [1] (3 mg/kg oral gavage daily for 28 days) is given as 32 days; in assay [1] (10 mg/kg oral gavage daily for 28 days), 37 days; in assay [1] (30 mg/kg oral gavage daily for 28 days) it was 40 days. Further, the “in vivo tumor growth (luminescence signal) vs control” value in assay [1] (OCI-LY10 model, 3, 10 and 30 mg/kg groups) is reported as “significantly slower”; in assay [1] (OCI-LY10 model, 3, 10 and 30 mg/kg groups, listed as 4-amino-2-(2,6-dioxo-piperidine-3-yl)-isoindoline-1,3-dione), “reduction of tumor growth”. Moreover, in assay [1] (OCI-LY10 model, 3, 10 and 30 mg/kg groups, p<0.05, n=8), the “survival, Kaplan-Meier analysis vs control” value is recorded as “prolongation of survival”. For the same compound, the results for the “CD335 positive NK cells in CNS tumors” value in assay [2] and in assay [2] (setting [3]) were “significantly increased” and “significant increase”, respectively. Also, the figures for the “Ym1-expressing cells (M2-polarized macrophages) in tumor” value in assay [2] and in assay [2] (setting [3]) were “significantly decreased” and “significant decrease”, respectively. Also, the “iNOS-expressing cells (M1-polarized macrophages) in tumor” value in assay [2] is on record as “increased”; in assay [2] (setting [3]) it was “significant increase”. In addition, in assay [2] (contralateral brain and tumor), the “brain macrophages (Iba-1 positive cells)” value was “significantly increased”.
